Several values for one entry are separate records, joined by “and”; a condition that tells them apart may be missing. Identical values can stand only once.
Experiments:
Rv1258c efflux pump = details: for Efflux Ratio: H37Rv MIC / Rv1258c KO MIC
[1] = test system: M. tuberculosis H37Rv Rv1258c knockout (KO); assay: microbe, parasite or virus in culture; assay type: cell-based; details: Tables 1-4 and text; 7 days, 7H9 broth
[2] = heteroaryl ring of side chain; ref not given; cited from earlier work
M. tuberculosis H37Rv = assay: microbe, parasite or virus in culture; assay type: cell-based, Mycobacterium tuberculosis; details: for H37Rv MIC: Tables 1-4 and text; for MIC (H37Rv): Table 5
[3] = molecular target: Purified 70S M. smegmatis bacterial ribosomes (Mycolicibacterium smegmatis, UniProt A0QSG6); assay: Ribosomal translation inhibition; assay type: biochemical; details: inhibits luciferase activity by 50%
[4] = Maximum tolerated dose / tolerability; assay type: in vivo, mouse; details: mice; for Maximum tolerated dose (MTD): subcutaneous
[5] = Microsomal stability, mouse; assay type: in vitro ADME; details: mouse liver microsomes
[6] = Microsomal stability, human; assay type: in vitro ADME; details: human liver microsomes
Protein binding, mouse = assay type: in vitro ADME
Protein binding, human = assay type: in vitro ADME
HepG2 cells = assay: Mammalian cytotoxicity; assay type: cell-based
M. tuberculosis Erdman = assay: Mouse model of acute tuberculosis infection; assay type: in vivo; details: 9 days, vs control
M. bovis BCG = assay type: cell-based; details: average of 2–3 replicates, standard deviation in parenthesis
[7] = first new trial (Figure 3B), 200 mg/kg BID, subcutaneous
[8] = second new trial (Figure 3C), 200 mg/kg BID, subcutaneous

Sequence of Purified 70S M. smegmatis bacterial ribosomes (A0QSG6 whole entry): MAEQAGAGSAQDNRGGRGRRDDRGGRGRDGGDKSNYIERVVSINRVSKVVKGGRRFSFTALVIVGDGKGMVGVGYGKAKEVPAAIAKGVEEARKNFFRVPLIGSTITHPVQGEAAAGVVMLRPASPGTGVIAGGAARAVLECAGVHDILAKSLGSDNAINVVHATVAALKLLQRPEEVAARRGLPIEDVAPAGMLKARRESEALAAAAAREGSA

Structure (SMILES)	Efflux Ratio (Rv1258c efflux pump)	Rv1258c KO MIC [1]	pKa [2]	H37Rv MIC (M. tuberculosis H37Rv)	Ribosome IC50 [3]	Maximum tolerated dose (MTD) [4]	Microsomal stability t1/2 mouse [5]	Microsomal stability t1/2 human [6]	Protein binding mouse (Protein binding, mouse)	Protein binding human (Protein binding, human)	Cytotoxicity (HepG2) (HepG2 cells)	Reduction of bacterial load in lungs (M. tuberculosis Erdman; [7])	MIC (H37Rv) (M. tuberculosis H37Rv)	Post Antibiotic Effect (M. bovis BCG)	Fold change of MIC between H37Rv and Rv1258c KO (efflux) (Rv1258c efflux pump)	Reduction of bacterial load in lungs (M. tuberculosis Erdman; [8])	Reduction of bacterial load in lungs (M. tuberculosis Erdman; second new trial (Figure 3C), 100 mg/kg)	Well tolerated dosing ([4]; efficacy trial dosing (Table S3))
CN[C@@H]1[C@H](O)[C@H](NC)[C@H]2O[C@]3(O)[C@H](O[C@@H]2[C@H]1O)O[C@H](C)C[C@H]3NC(=O)Cc1ncc[nH]1.Cl.Cl.Cl [Compound 21, 3′-Dihydro-3′-deoxy-3′(R)-(1H-imidazol-2-yl)acetylamino spectinomycin trihydrochloride]	2	6.3 µg/mL	7.0	12.5 µg/mL	0.56 µg/mL													
Br.Br.Br.CNC1C(O)C(NC)C2OC3(O)C(NC(=O)Cc4nc5ccccc5s4)CC(C)OC3OC2C1O [Compound 25, 3′-Dihydro-3′-deoxy-3′(R)-(benzo[d]thiazol-2-yl)acetylamino spectinomycin trihydrobroride]	2	0.8 µg/mL		1.6 µg/mL	1.09 µg/mL	mild toxicity noted when dosage exceeded 100 mg/kg												
Br.Br.Br.CN[C@@H]1[C@H](O)[C@H](NC)[C@H]2O[C@]3(O)[C@H](O[C@@H]2[C@H]1O)O[C@H](C)C[C@H]3NC(=O)Cc1nc2ccccc2[nH]1 [Compound 27, 3′-Dihydro-3′-deoxy-3′(R)-(1H-benzo[d]imidazol-2-yl)acetylamino spectinomycin trihydrobroride]	1	1.6 µg/mL	5.6	1.6 µg/mL	0.26 µg/mL		>50 h	>50 h	12.1%	26.3%	>400 µg/mL	1.6 logs	1.6 µg/mL	137 h				
Br.Br.Br.CNC1C(O)C(NC)C2OC3(O)C(OC(C)C[C@H]3NC(=O)Cc3cccc(C)n3)OC2C1O (stereo partly drawn) [Compound 32, 3′-Dihydro-3′-deoxy-3′(R)-(6-methylpyridin-2-yl)acetylamino spectinomycin trihydrobromide]	4	6.3 µg/mL		25 µg/mL	0.50 µg/mL													
Br.Br.Br.CNC1C(O)C(NC)C2OC3(O)C(NC(=O)Cc4cc(C(C)C)ccn4)CC(C)OC3OC2C1O [Compound 33, 3′-Dihydro-3′-deoxy-3′(R)-(4-isopropylpyridin-2-yl)acetylamino spectinomycin trihydrobromide]	4	1.6 µg/mL		6.3 µg/mL	0.36 µg/mL										4 fold			
Br.Br.Br.CNC1C(O)C(NC)C2OC3(O)C(NC(=O)Cc4cc(OC)ccn4)CC(C)OC3OC2C1O [Compound 34, 3′-Dihydro-3′-deoxy-3′(R)-(4-methoxypyridin-2-yl)acetylamino spectinomycin trihydrobromide]	4	3.1 µg/mL		12.5 µg/mL	0.39 µg/mL													
CNC1C(O)C(NC)C2OC3(O)C(NC(=O)Cc4cc(O)ccn4)CC(C)OC3OC2C1O.Cl.Cl.Cl [Compound 35, 3′-Dihydro-3′-deoxy-3′(R)-(4-hydroxypyridin-2-yl)acetylamino spectinomycin trihydrochloride]	2	12.5 µg/mL		25 µg/mL	0.44 µg/mL													
Br.Br.Br.CN[C@@H]1[C@H](O)[C@H](NC)[C@H]2O[C@]3(O)[C@H](O[C@@H]2[C@H]1O)O[C@H](C)C[C@H]3NC(=O)Cc1ccc(OC)cn1 [Compound 38, 3′-Dihydro-3′-deoxy-3′(R)-(5-methoxypyridin-2-yl)acetylamino spectinomycin trihydrobromide]	0.5	6.3 µg/mL		3.1 µg/mL	0.39 µg/mL		4.8 h	3.4 h	57.3%	51.4%	>400 µg/mL		3.1 µg/mL	56 (12) h		1.6 log		
CN[C@@H]1[C@H](O)[C@H](NC)[C@H]2O[C@]3(O)[C@H](O[C@@H]2[C@H]1O)O[C@H](C)C[C@H]3NC(=O)Cc1ccc(O)cn1.Cl.Cl.Cl [Compound 39, 3′-Dihydro-3′-deoxy-3′(R)-(5-hydroxypyridin-2-yl)acetylamino spectinomycin trihydrochloride]	0.5	3.1 µg/mL		1.6 µg/mL	0.84 µg/mL	> 400 mg/kg	13.4 h	7.4 h	30.7%	35.1%	>400 µg/mL		1.6 µg/mL	20 (18) h		1.5 log		
CN[C@@H]1[C@H](O)[C@H](NC)[C@H]2O[C@]3(O)[C@H](O[C@@H]2[C@H]1O)O[C@H](C)C[C@H]3NC(=O)Cc1ccc(OC(F)(F)F)cn1.Cl.Cl.Cl [Compound 41, 3′-Dihydro-3′-deoxy-3′(R)-(5-(trifluoromethoxy)pyridin-2-yl)acetylamino spectinomycin trihydrochloride]	4	0.8 µg/mL		3.1 µg/mL	0.96 µg/mL		27.0 h	22.4 h	58.4%	51.4%	>400 µg/mL		3.1 µg/mL	61 (17) h			1.1 log	100 mg/kg
Br.Br.Br.CNC1C(O)C(NC)C2OC3(O)C(NC(=O)Cc4ccc(Br)cn4)CC(C)OC3OC2C1O [Compound 43, 3′-Dihydro-3′-deoxy-3′(R)-(5-bromopyridin-2-yl)acetylamino spectinomycin trihydrobromide]	2	1.6 µg/mL		3.1 µg/mL	0.42 µg/mL													
Br.Br.Br.CNC1C(O)C(NC)C2OC3(O)C(OC(C)C[C@H]3NC(=O)Cc3nccc(Cl)c3C(C)C)OC2C1O (stereo partly drawn) [Compound 45, 3′-Dihydro-3′-deoxy-3′(R)-(4-chloro-3-isopropylpyridin-2-yl)acetylamino spectinomycin trihydrobromide]	32	1.6 µg/mL		50 µg/mL	2.3 µg/mL and 2.31 µg/mL										32 fold			
Br.Br.Br.CN[C@@H]1[C@H](O)[C@H](NC)[C@H]2O[C@]3(O)[C@H](O[C@@H]2[C@H]1O)O[C@H](C)C[C@H]3NC(=O)Cc1nccc(Cl)c1C [Compound 46, 3′-Dihydro-3′-deoxy-3′(R)-(4-chloro-3-methylpyridin-2-yl)acetylamino spectinomycin trihydrobromide]	2	1.6 µg/mL		3.1 µg/mL	0.59 µg/mL		>50 h	>50 h	36.4%	46.6%	>400 µg/mL	least reduction in bacterial loads	3.1 µg/mL					
Br.Br.Br.CN[C@@H]1[C@H](O)[C@H](NC)[C@H]2O[C@]3(O)[C@H](O[C@@H]2[C@H]1O)O[C@H](C)C[C@H]3NC(=O)Cc1cc(Cl)c(F)cn1 [Compound 49, 3′-Dihydro-3′-deoxy-3′(R)-(4-chloro-5-fluoropyridin-2-yl)acetylamino spectinomycin trihydrobromide]		0.8 µg/mL		0.8 µg/mL	0.22 µg/mL		>50 h	>50 h	39.3%	56.3%	>400 µg/mL		0.8 µg/mL	116 (19) h				
CNC1C(O)C(NC)C2OC3(O)C(OC(C)C[C@H]3NC(=O)Cc3cc(OC)c(F)cn3)OC2C1O.Cl.Cl.Cl (stereo partly drawn) [Compound 50, 3′-Dihydro-3′-deoxy-3′(R)-(5-fluoro-4-methoxypyridin-2-yl)acetylamino spectinomycin trihydrochloride]	2	3.1 µg/mL		6.3 µg/mL	0.92 µg/mL													

Source: publication PMC5493200 (ACS infectious diseases, 2016)
